44 compounds from ChEMBL document CHEMBL5260833, “An overview of quinazolines: Pharmacological significance and recent developments” (Eur J Med Chem, 2018) can be followed below.

The structures appear in SMILES notation.

One assay deals with Fusarium graminearum. Nature of the assay: Antifungal activity against Gibberella zeae assessed as bacterial growth inhibition at 50 ug/ml incubated for 5 days relative to control. Particulars: 120 h, time 5 day. The format is functional.
The test system of another assay is Cytospora mali. Nature of the assay: Antifungal activity against Valsa mali assessed as bacterial growth inhibition at 50 ug/ml incubated for 5 days relative to control. The settings on record: 120 h, time 5 day. The format is functional.
A further assay relates to Fusarium oxysporum. Nature of the assay: Antifungal activity against Fusarium oxysporum assessed as bacterial growth inhibition at 50 ug/ml incubated for 5 days relative to control. The assay is classed as functional. The settings on record: 120 h, time 5 day.
The target in assay [1] is T1, Type-1 angiotensin II receptor A (Rattus norvegicus, UniProt P25095).
T1 sequence (P25095 whole entry): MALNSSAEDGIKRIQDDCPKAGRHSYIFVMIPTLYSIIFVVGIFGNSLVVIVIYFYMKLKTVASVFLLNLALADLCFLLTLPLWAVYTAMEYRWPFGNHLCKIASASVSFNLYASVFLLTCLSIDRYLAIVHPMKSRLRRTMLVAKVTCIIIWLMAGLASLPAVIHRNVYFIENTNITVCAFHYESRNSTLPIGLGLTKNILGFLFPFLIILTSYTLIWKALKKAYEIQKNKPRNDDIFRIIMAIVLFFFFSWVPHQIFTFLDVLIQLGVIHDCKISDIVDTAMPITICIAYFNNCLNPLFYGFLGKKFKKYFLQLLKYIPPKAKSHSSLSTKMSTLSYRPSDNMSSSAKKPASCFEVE
As to the kind of experiment: Inhibition of rat adrenal cortex angiotensin II. The format is tissue-based.

The subject of assay [2] is Rattus norvegicus. Nature of the assay: Inhibition of AII induced mean arterial blood pressure in rat assessed as vasoconstrictor at 5 mg/kg, po. The assay is classed as functional.
Assay [3] has as its system Rattus norvegicus. Nature of the assay: Inhibition of AII induced rat assessed as vasoconstrictor at 15 mg/kg, iv. The format is functional.
Assay [4] deals with T2, Type-2 angiotensin II receptor (Rattus norvegicus, UniProt P35351).
T2 sequence (P35351 whole entry): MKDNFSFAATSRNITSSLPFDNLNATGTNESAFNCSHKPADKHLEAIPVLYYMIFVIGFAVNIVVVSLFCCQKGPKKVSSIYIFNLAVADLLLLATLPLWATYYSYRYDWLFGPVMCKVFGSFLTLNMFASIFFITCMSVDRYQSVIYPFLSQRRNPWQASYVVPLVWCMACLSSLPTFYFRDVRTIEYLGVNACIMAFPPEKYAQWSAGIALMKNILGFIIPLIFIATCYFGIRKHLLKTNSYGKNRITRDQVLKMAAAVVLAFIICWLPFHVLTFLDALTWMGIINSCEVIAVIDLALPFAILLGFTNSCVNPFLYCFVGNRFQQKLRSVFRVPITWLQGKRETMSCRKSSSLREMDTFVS
Nature of the assay: Binding affinity to AT2 in rat brain. The format is tissue-based.

Assay [5] relates to Rattus norvegicus. Nature of the assay: Inhibition of AII induced mean arterial blood pressure in rat assessed as vasoconstrictor at 1 mg/kg, po. The assay is classed as functional.

With `CCn1cnc2ccccc2c1=O`, the values for the inhibition at 50 µg/mL in the assay with Fusarium graminearum, with Cytospora mali and in the assay with Fusarium oxysporum were 5.5%, 0.9% and 4.9%, respectively.

In the case of `CCCCc1nc2ccc(C(OC)c3ccccc3)cc2c(=O)n1Cc1ccc(-c2ccccc2-c2nn[nH]n2)cc1` (configuration not stated), the IC50 (in general, the midpoint of a concentration-inhibition curve) in assay [1] is more than 1000 nM. Moreover, the Activity in the assay with Rattus norvegicus [2] is 65 mmHg. As to `C=CCn1cnc2ccccc2c1=O`, the inhibition – broadly, the change of the read-out against control, counted positive when it falls – at 50 µg/mL worked out at 5.5% in the assay with Fusarium graminearum, 0.9% in the assay on Cytospora mali and 4.9% with Fusarium oxysporum. As for `CCCCC1Nc2ccccc2C(=O)N1Cc1ccc(-c2ccccc2-c2nn[nH]n2)cc1` (configuration not stated), half-maximal inhibition in assay [1] (IC50) required 14000 nM. For the same compound, the inhibition in vivo (as a rule, the share of the control response that was lost under treatment) at 15 mg/kg in the assay with Rattus norvegicus [3] amounted to 88%.

As for `CCCCC(CCCC)C1Nc2ccccc2C(=O)N1Cc1ccc(-c2ccccc2-c2nnn[nH]2)cc1` (configuration not stated), the half-inhibitory concentration (IC50) in assay [1] is 12000 nM. The inhibition in vivo at 15 mg/kg in the assay with Rattus norvegicus [3] was 88%. In turn, `CCCCc1nc2ccc(C(C)O)cc2c(=O)n1Cc1ccc(-c2ccccc2-c2nn[nH]n2)cc1` (configuration not stated) displayed an IC50 in assay [1] of 5 nM. In the assay on Rattus norvegicus [2], the Activity is 65 mmHg. With `CCCn1cnc2ccc(Br)cc2c1=O`, the inhibition at 50 µg/mL in the assay on Fusarium graminearum was found to be 55%; in the assay on Cytospora mali, 0.9%; with Fusarium oxysporum it was 47.2%. Compound `CCCCC1N(Cc2ccc(-c3ccccc3-c3nn[nH]n3)cc2)C(=O)c2ccccc2N1C` (configuration not stated) had an IC50 in assay [1] of 14000 nM. For the same compound, the inhibition in vivo at 15 mg/kg with Rattus norvegicus [3] came out at 88%. The like results for `CCC1Nc2ccc(C(C)C)cc2C(=O)N1Cc1ccc(-c2ccccc2-c2nn[nH]n2)cc1` (configuration not stated) were, in that order, 90 nM and 88%.

Consider `CCCCCN(C(=O)c1ccccc1)c1ccc2nc(CCC)n(Cc3ccc(-c4ccccc4-c4nn[nH]n4)cc3)c(=O)c2c1`, for which the IC50 in assay [4] was determined as 1 nM.

As for `CCc1nc2ccc(N(Cc3ccccc3Cl)C(=O)c3ccccc3)cc2c(=O)n1Cc1ccc(-c2ccccc2-c2nn[nH]n2)cc1`, in assay [4], the IC50 was 0.22 nM. Still for that read-out and setting: in the case of `Cc1nc2ccc(N(Cc3ccccc3)C(=O)c3ccccc3)cc2c(=O)n1Cc1ccc(-c2ccccc2-c2nnn[nH]2)cc1` it was 0.22 nM; in that of `CCc1nc2ccc(N(Cc3ccccc3)C(=O)c3ccncc3)cc2c(=O)n1Cc1ccc(-c2ccccc2-c2nn[nH]n2)cc1`, 0.22 nM. For `CCCn1cnc2ccccc2c1=O`, the inhibition at 50 µg/mL came out at 5.5% in the assay with Fusarium graminearum, 0.9% in the assay on Cytospora mali and 4.9% in the assay on Fusarium oxysporum. In assay [4], `CC(C)c1nc2ccc(N(Cc3ccccc3)C(=O)c3cccs3)cc2c(=O)n1Cc1ccc(-c2ccccc2-c2nnn[nH]2)cc1` had an IC50 of 0.22 nM. That is a sub-nanomolar value. The same measure, in the same setting: with `Cc1nc2ccc(N(Cc3ccccc3Cl)C(=O)c3ccccc3)cc2c(=O)n1Cc1ccc(-c2ccccc2-c2nn[nH]n2)cc1` the figure was 0.06 nM; with `CC(C)c1nc2ccc(N(Cc3ccccc3)C(=O)c3ccccc3)cc2c(=O)n1Cc1ccc(-c2ccccc2-c2nnn[nH]2)cc1`, 0.22 nM.

Regarding `CCCC1Nc2ccccc2C(=O)N1Cc1ccc(-c2ccccc2-c2nn[nH]n2)cc1` (configuration not stated), in assay [1], it took 540 nM to reach half-maximal inhibition (IC50). In addition, the inhibition in vivo at 15 mg/kg in the assay on Rattus norvegicus [3] stood at 88%. Consider `CCn1cnc2ccc(Cl)cc2c1=O`, for which the inhibition at 50 µg/mL with Fusarium graminearum stood at 5.5%; in the assay with Cytospora mali, 0.9%; in the assay on Fusarium oxysporum, 4.9%.

In the case of `CCc1nc2ccc(N(CC=C(C)C)C(=O)c3ccccc3)cc2c(=O)n1Cc1ccc(-c2ccccc2-c2nn[nH]n2)cc1`, the IC50 in assay [4] worked out at 0.46 nM. That is a sub-nanomolar value. In the case of `CCn1cnc2ccc(F)cc2c1=O`, the inhibition at 50 µg/mL worked out at 5.5% in the assay on Fusarium graminearum, 0.9% in the assay on Cytospora mali and 4.9% with Fusarium oxysporum. On to `CCCc1nc2ccc(N(Cc3ccccc3)C(=O)OC(C)(C)C)cc2c(=O)n1Cc1ccc(-c2ccccc2-c2nnn[nH]2)cc1`, for which, in assay [4], the IC50 stood at 0.46 nM. On the same count and under the same terms, in the case of `CCc1nc2ccc(N(Cc3ccccc3)C(=O)c3cccs3)cc2c(=O)n1Cc1ccc(-c2ccccc2-c2nn[nH]n2)cc1` it was 0.22 nM. With `C=CCn1cnc2ccc(F)cc2c1=O`, the inhibition at 50 µg/mL worked out at 5.5% in the assay with Fusarium graminearum, 0.9% with Cytospora mali and 4.9% with Fusarium oxysporum. With `CCn1cnc2ccc(Br)cc2c1=O`, the inhibition at 50 µg/mL in the assay with Fusarium graminearum came out at 5.5%; with Cytospora mali it was 0.9%; with Fusarium oxysporum, 4.9%. In assay [1], `CCC1Nc2ccc(C)cc2C(=O)N1Cc1ccc(-c2ccccc2-c2nn[nH]n2)cc1` (configuration not stated) came in with an IC50 of 13000 nM. Also, in the assay on Rattus norvegicus [3], the inhibition in vivo at 15 mg/kg turned out to be 88%.

Take `CCCC1N(Cc2ccc(-c3ccccc3-c3nn[nH]n3)cc2)C(=O)c2ccccc2N1C` (configuration not stated): inhibition in assay [1] was half-maximal at 540 nM (IC50). The inhibition in vivo at 15 mg/kg in the assay with Rattus norvegicus [3] turned out to be 88%. Turning to `C=CCn1cnc2ccc(Cl)cc2c1=O`, the inhibition at 50 µg/mL in the assay on Fusarium graminearum is 5.5%; in the assay on Cytospora mali, 28.3%; in the assay on Fusarium oxysporum, 4.9%. In the case of `CCCCc1nc2ccc([C@H]3C[C@H]4CCCN4O3)cc2c(=O)n1Cc1ccc(-c2ccccc2-c2nnn[nH]2)cc1`, the Activity in the assay on Rattus norvegicus [5] stood at 55 mmHg. In the case of `CCCCc1nc2ccc([C@@]3(C)C[C@H]4CC[C@H](C)N4O3)cc2c(=O)n1Cc1ccc(-c2ccccc2-c2nnn[nH]2)cc1`, the Activity in the assay with Rattus norvegicus [5] came out at 55 mmHg. With `CCCCc1nc2ccc([C@@]3(C(=O)O)C[C@H]4CCCN4O3)cc2c(=O)n1Cc1ccc(-c2ccccc2-c2nnn[nH]2)cc1`, in the assay with Rattus norvegicus [5], the Activity worked out at 55 mmHg. The same measure, in the same setting: with `CCCCc1nc2ccc([C@H]3C[C@@]4(C)CCCCN4O3)cc2c(=O)n1Cc1ccc(-c2ccccc2-c2nnn[nH]2)cc1` the figure was 55 mmHg; with `CCCCc1nc2ccc([C@@]3(C(=O)N4CCCC4)C[C@H]4CCCN4O3)cc2c(=O)n1Cc1ccc(-c2ccccc2-c2nnn[nH]2)cc1`, 55 mmHg. With `CCCCc1nc2ccc([C@@]3(CO)C[C@H]4CCCN4O3)cc2c(=O)n1Cc1ccc(-c2ccccc2-c2nnn[nH]2)cc1`, the Activity in the assay on Rattus norvegicus [5] turned out to be 55 mmHg. As for `CCCCc1nc2ccc([C@]3(C)C[C@H]4CC[C@H](C)N4O3)cc2c(=O)n1Cc1ccc(-c2ccccc2-c2nnn[nH]2)cc1`, the Activity in the assay with Rattus norvegicus [5] is reported as 55 mmHg. `CCCCc1nc2ccc([C@H]3C[C@H]4CC[C@H](C)N4O3)cc2c(=O)n1Cc1ccc(-c2ccccc2-c2nnn[nH]2)cc1`: the Activity with Rattus norvegicus [5] was 55 mmHg. Consider `Cc1cc(O)no1` [HYMEXAZOL], for which the inhibition at 50 µg/mL with Fusarium graminearum was 50.4%; in the assay with Cytospora mali, 22.5%; with Fusarium oxysporum, 55.4%. The like results for `CCCn1cnc2ccc(F)cc2c1=O` were, in that order, 5.5%, 0.9% and 4.9%.

Consider `C=CCn1cnc2ccc(Br)cc2c1=O`, for which the figures for the inhibition at 50 µg/mL with Fusarium graminearum, in the assay on Cytospora mali and in the assay with Fusarium oxysporum were 5.5%, 30.4% and 4.9%, respectively. `CCCC1Nc2ccc(C(C)C)cc2C(=O)N1Cc1ccc(-c2ccccc2-c2nn[nH]n2)cc1` (configuration not stated) returned an IC50 in assay [1] of 50 nM. Moreover, the inhibition in vivo at 15 mg/kg in the assay on Rattus norvegicus [3] was 88%. With `CCCn1cnc2ccc(Cl)cc2c1=O`, the inhibition at 50 µg/mL in the assay on Fusarium graminearum came out at 5.5%; in the assay on Cytospora mali, 40.9%; with Fusarium oxysporum it was 4.9%. Take `CCCCC1Nc2ccc(C(C)C)cc2C(=O)N1Cc1ccc(-c2ccccc2-c2nn[nH]n2)cc1` (configuration not stated): the midpoint of inhibition in assay [1], the IC50, lay at 1100 nM. Besides, the inhibition in vivo at 15 mg/kg in the assay with Rattus norvegicus [3] turned out to be 88%. On to `CCCCc1nc2ccc([C@@]3(C(=O)N(C)C)C[C@H]4CCCN4O3)cc2c(=O)n1Cc1ccc(-c2ccccc2-c2nnn[nH]2)cc1`, for which the Activity with Rattus norvegicus [5] came out at 55 mmHg. For `CCC1Nc2ccccc2C(=O)N1Cc1ccc(-c2ccccc2-c2nn[nH]n2)cc1` (configuration not stated), in assay [1], the IC50 is 45000 nM. Further, the inhibition in vivo at 15 mg/kg in the assay with Rattus norvegicus [3] was found to be 88%.
